Experimental data published in PMC6691826, “1D NMR WaterLOGSY as an efficient method for fragment-based lead discovery” (Journal of Enzyme Inhibition and Medicinal Chemistry, 2019).
Blank lines part the entries; values can stand above or below the compound they belong to.

Experiments:
[1] = target: T1, glycogen phosphorylase (GP) (Oryctolagus cuniculus, UniProt P00489); experiment: Dissociation constant of fragment bound to GP; format: binding, rabbit; details: unpublished data
T1 sequence (P00489 1-843): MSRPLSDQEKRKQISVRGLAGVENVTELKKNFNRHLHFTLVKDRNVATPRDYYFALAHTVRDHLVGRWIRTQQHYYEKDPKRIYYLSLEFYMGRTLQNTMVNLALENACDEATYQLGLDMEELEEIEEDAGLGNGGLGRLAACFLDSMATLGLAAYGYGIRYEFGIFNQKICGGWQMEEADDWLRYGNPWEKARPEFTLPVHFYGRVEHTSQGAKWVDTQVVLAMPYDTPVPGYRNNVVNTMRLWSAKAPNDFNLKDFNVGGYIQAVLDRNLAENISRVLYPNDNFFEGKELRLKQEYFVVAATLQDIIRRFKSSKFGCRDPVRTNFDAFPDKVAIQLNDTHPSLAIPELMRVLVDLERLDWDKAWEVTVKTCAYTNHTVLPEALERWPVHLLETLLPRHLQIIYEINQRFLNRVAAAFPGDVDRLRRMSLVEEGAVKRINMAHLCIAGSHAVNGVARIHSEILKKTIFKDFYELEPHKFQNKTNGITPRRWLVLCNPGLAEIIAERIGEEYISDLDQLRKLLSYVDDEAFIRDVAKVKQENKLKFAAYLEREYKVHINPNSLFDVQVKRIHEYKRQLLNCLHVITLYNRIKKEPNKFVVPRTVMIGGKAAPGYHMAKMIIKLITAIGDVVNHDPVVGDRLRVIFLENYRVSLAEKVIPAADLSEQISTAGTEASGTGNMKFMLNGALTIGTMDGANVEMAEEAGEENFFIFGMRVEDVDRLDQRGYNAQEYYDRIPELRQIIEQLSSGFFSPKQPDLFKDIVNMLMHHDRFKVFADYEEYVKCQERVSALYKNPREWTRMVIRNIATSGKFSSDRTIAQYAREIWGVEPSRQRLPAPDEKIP

[2] = target: T2, human serum albumin (HSA) (Homo sapiens, UniProt P02768); experiment: WaterLOGSY NMR epitope mapping, HSA; format: binding; details: all protons, bound to HSA, 1.5 s mixing time, normalised
T2 construct: purchased Sigma A3782
Method: (§1) NMR samples for STD experiments consisted of 400 µM fragment in 0.5% DMSO-d6 and 10% D2O (v/v) together with a protein concentration of 20 µM for peroxiredoxin and HSP90, 10 µM for Bcl-xL, 15 µM for Mcl-1, 2 µM for glycogen phosphorylase, and 5 µM for HSA.
(§2) Standard 1 D, STD, and WaterLOGSY NMR spectra were acquired at 20 °C with an Agilent Inova 600 MHz NMR spectrometer, equipped with a room temperature 5 mm triple-resonance inverse probe with z-axis field gradient and a Bruker 600 MHz NMR spectrometer, equipped with a Z-gradient cryoprobe.
(§3) WaterLOGSY mixing time was 1.5 s, and additional experiments were performed with 0.75 s and 0.25 s mixing time. Both STD and WaterLOGSY spectra were recorded for each sample. WaterLOGSY spectra in the absence of protein receptor were recorded with 400 µM compound. All the NMR experiments were performed at 293 K with excitation sculpting to suppress peaks from water. […] The STD factors were calculated according to the following equation: R=(ISTD/I1D)×100) were ISTD and I1D are the intensity of proton resonances of the STD and the 1 D proton spectra, respectively. […]
(§4) This is due to the WaterLOGSY mechanism that involves magnetisation transfer from bulk water. Therefore, we propose the following protocol to quantitatively evaluate the WaterLOGSY signals of the protons of a compound bound to its receptor. […]

[3] = target: T2, human serum albumin (HSA); experiment: Dissociation constant of fragment bound to HSA; format: binding
[4] = target: Bcl-xL; parameters: method as in PMID 16420051; details: bound to Bcl-xL; cited from earlier work
[5] = target: T3, N-terminal domain of HSP90 (Homo sapiens, UniProt P07900); experiment: WaterLOGSY NMR epitope mapping, HSP90; format: binding; details: proton H1, bound to HSP90, 1.5 s mixing time, normalised
T3 construct: the N-terminal domain (9–236) of HSP-90 were produced and purified; made in house; host or cells: Escherichia coli
Method: as §1, §2, §3, §4

[6] = target: N-terminal domain (9–236) of HSP90; parameters: method as in PMID 20718493; details: bound to HSP90; cited from earlier work

T2 sequence (P02768 25-609): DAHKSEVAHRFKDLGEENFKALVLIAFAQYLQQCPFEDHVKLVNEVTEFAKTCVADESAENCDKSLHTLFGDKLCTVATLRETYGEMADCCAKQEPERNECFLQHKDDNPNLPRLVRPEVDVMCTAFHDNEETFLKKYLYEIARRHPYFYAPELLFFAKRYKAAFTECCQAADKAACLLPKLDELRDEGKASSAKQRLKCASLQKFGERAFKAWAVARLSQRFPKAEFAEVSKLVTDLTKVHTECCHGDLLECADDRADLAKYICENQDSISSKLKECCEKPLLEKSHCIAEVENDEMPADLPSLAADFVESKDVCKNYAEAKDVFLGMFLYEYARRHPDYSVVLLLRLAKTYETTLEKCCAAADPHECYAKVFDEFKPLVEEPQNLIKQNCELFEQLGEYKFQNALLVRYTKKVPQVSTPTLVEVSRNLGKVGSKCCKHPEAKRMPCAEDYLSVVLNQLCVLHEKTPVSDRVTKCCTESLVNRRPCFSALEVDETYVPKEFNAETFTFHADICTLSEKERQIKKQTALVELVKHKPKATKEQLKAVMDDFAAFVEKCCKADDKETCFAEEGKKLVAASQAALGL

- Kd [1]: > 1000 µM
SMILES: O=C(O)c1ccc(Oc2ccccc2)cc1 [Compound 6, 4-phenoxybenzoic acid]

- WLOGSY factor [2]: 100%
- Kd [3]: > 1000 µM
SMILES: Cc1ccc(O)c(O)c1 [Compound 1, 4-methylcatechol]

SMILES: O=C(O)c1ccc(-c2ccc(F)cc2)cc1 [Compound 5, 4′-fluoro-[1,1′-biphenyl]-4-carboxylic acid]
- Kd [4]: 300 µM

- WLOGSY factor [5]: 10%
SMILES: CCN(CC)C(=O)c1ccc(O)c(OC)c1 [Compound 4, N,N-diethylvanillamide]
- Kd [6]: 790 µM
